Data published in article PMC9841576, “Characterisation of C101248: A novel selective THIK-1 channel inhibitor for the modulation of microglial NLRP3-inflammasome” (Neuropharmacology, 2023).

Biological target: T1, THIK-1 K+ currents in microglia (Mus musculus, UniProt Q8R1P5)
T1 construct: To study the effect of C10248 in native brain tissue; from tissue; host or cells: microglia in acute hippocampal slices of 3-4 month old Cx3Cr1-GFP mice
Experiment: Whole-cell patch clamp of microglia in acute hippocampal slices, wild-type mice
Type: cell-based
Experimental: Acute hippocampal slices (300 μm thick), from 3 to 4 months old mice, were prepared using a specially adapted protective slicing solution ([Ting et al., 2014]) containing (mM) 93 choline chloride, 20 HEPES, 30 NaHCO3, 2.5 KCl, 0.5 CaCl2, 10 MgCl2, 1.2 NaH2PO4, 25 glucose, 1 kynurenic acid, 5 Na-ascorbate, 3 Na-pyruvate, pH adjusted to 7.4, bubbled with 95% O2/5% CO2 and cooled at <4 °C, and a recovery solution containing (mM) 92 NaCl, 20 HEPES, 30 NaHCO3, 2.5 KCl, 2 CaCl2, 1 MgCl2, 1.2 NaH2PO4, 25 glucose, 1 kynurenic acid, 5 Na-ascorbate, 3 Na-pyruvate, pH set to 7.4 and bubbled with 95% O2/5% CO2
Immediately after slicing, slices were placed for 13 min in warm (33–35 °C) slicing solution and then transferred to recovery solution at room temperature until experimental usage. […] Slices were perfused with bicarbonate-buffered solution, at 34–36 °C for all experiments, containing (mM) 124 NaCl, 2.5 KCl, 26 NaHCO3, 1 NaH2PO4, 2 CaCl2, 1 MgCl2, 10 glucose, bubbled with 95% O2/5% CO2. Microglia were whole-cell clamped with electrodes containing K-gluconate based solution, comprising (mM) 130 K-glu, 4 NaCl, 1 CaCl2, 10 HEPES, 10 EGTA, 4 MgATP, 0.5 Na2GTP, pH set to 7.2 with KOH and osmolarity adjusted to […]. […] Currents were filtered at 1 kHz, digitized (10 kHz) and analysed off-line using pClamp10 software.

T1 sequence (Q8R1P5 whole entry): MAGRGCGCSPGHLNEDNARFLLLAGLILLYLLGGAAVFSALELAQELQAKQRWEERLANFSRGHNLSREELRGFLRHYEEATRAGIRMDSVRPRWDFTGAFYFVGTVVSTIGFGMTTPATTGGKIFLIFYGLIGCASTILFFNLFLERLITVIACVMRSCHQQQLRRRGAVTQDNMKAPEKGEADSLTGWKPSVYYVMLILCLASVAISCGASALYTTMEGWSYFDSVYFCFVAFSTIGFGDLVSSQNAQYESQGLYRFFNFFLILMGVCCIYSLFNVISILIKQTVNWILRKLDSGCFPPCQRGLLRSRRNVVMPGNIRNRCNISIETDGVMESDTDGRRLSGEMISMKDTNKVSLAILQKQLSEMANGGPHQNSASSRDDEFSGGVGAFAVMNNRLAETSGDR

effect on microglial resting membrane potential (5 μM, current-clamp, no externally applied ATP): significantly depolarised
effect on 100 μM ATP-evoked THIK-1 K+ currents (0.05, 0.5 and 5 μM, microglia voltage-clamped at 0 mV): dose-dependently inhibited
Structure (SMILES): Nc1nonc1-c1nc2ccccc2n1Cc1ccncc1 [C101248]
